Test results from the supplement of paper PMC3770661.
Where a name gives a salt, the structure may show the parent alone. ± gives the uncertainty stated by the source.

System: HepG2 (L1.3 5'UTR promoter firefly luciferase reporter)
Assay: L1 promoter activity (FLuc/RLuc) relative to DMSO vehicle control (% of control); higher = stronger L1 promoter activation
Method: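 HepG2 cells in 96-well plates were cotransfected with pGL4.11-L1.3 5'UTR (firefly luciferase driven by the human L1.3 5'UTR promoter) and pGL4.74 (HSV-TK Renilla luciferase internal control), then treated with compound for 6 or 24 h. FLuc/RLuc ratio was normalised to the DMSO vehicle control (% of control); concentrations where RLuc fell below 50% of control were excluded (N.D.). Mean of at least two independent experiments in duplicate or quadruplicate.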

[1] = concentration (uM unless unit written): 10, treatment time: 6 h
[2] = concentration (uM unless unit written): 10, treatment time: 24 h
[3] = concentration (uM unless unit written): 25, treatment time: 6 h
[4] = concentration (uM unless unit written): 25, treatment time: 24 h
[5] = concentration (uM unless unit written): 50, treatment time: 6 h
[6] = concentration (uM unless unit written): 50, treatment time: 24 h
[7] = concentration (uM unless unit written): 5, treatment time: 6 h
[8] = concentration (uM unless unit written): 20, treatment time: 6 h
[9] = concentration (uM unless unit written): 20, treatment time: 24 h
[10] = concentration (uM unless unit written): 100, treatment time: 6 h
[11] = concentration (uM unless unit written): 100, treatment time: 24 h
[12] = concentration (uM unless unit written): 200, treatment time: 6 h
[13] = concentration (uM unless unit written): 200, treatment time: 24 h
[14] = concentration (uM unless unit written): 1, treatment time: 6 h
[15] = concentration (uM unless unit written): 1, treatment time: 24 h
[16] = concentration (uM unless unit written): 250, treatment time: 6 h
[17] = concentration (uM unless unit written): 250, treatment time: 24 h
[18] = concentration (uM unless unit written): 500, treatment time: 6 h
[19] = concentration (uM unless unit written): 1000, treatment time: 6 h
[20] = concentration (uM unless unit written): 500, treatment time: 24 h
[21] = concentration (uM unless unit written): 125, treatment time: 6 h
[22] = concentration (uM unless unit written): 125, treatment time: 24 h
[23] = concentration (uM unless unit written): 62.5, treatment time: 6 h
[24] = concentration (uM unless unit written): 62.5, treatment time: 24 h
[25] = concentration (uM unless unit written): 1250, treatment time: 6 h
[26] = concentration (uM unless unit written): 1250, treatment time: 24 h
[27] = concentration (uM unless unit written): 2500, treatment time: 6 h

COc1cc([C@@H]2c3cc4c(cc3[C@@H](O[C@@H]3O[C@@H]5CO[C@@H](C)O[C@H]5[C@H](O)[C@H]3O)[C@H]3COC(=O)[C@H]23)OCO4)cc(OC)c1O [Etoposide]
L1 promoter activity [1]: 90.4 ± 7.5 | L1 promoter activity [2]: 95.7 ± 4.1 | L1 promoter activity [3]: 100 ± 30 | L1 promoter activity [4]: 108 ± 16 | L1 promoter activity [5]: 98.6 ± 21 | L1 promoter activity [6]: 138 ± 70

CC(C)n1c(/C=C/C(O)CC(O)CC(=O)O)c(-c2ccc(F)cc2)c2ccccc21 (stereo unspecified) [Fluvastatin]
L1 promoter activity [7]: 126 ± 35 | L1 promoter activity (concentration (uM unless unit written): 5, treatment time: 24 h): 134 ± 32 | L1 promoter activity [1]: 111 ± 32 | L1 promoter activity [2]: 102 ± 23 | L1 promoter activity [8]: 99.4 ± 19 | L1 promoter activity [9]: 109 ± 25

Clc1ccccc1CN1CCc2sccc2C1 [Ticlopidine]
L1 promoter activity [1]: 117 ± 5.9 | L1 promoter activity [2]: 124 ± 4.8 | L1 promoter activity [3]: 107 ± 9.2 | L1 promoter activity [4]: 104 ± 9.1 | L1 promoter activity [5]: 96.2 ± 12 | L1 promoter activity [6]: 113 ± 22 | L1 promoter activity [10]: 97.5 ± 13 | L1 promoter activity [11]: 129 ± 11

Cc1cccc(Nc2cc(Cl)nc(SCC(=O)O)n2)c1C
L1 promoter activity [12]: 98.9 ± 11 | L1 promoter activity [13]: 82.7 ± 5.2

O=C1NC(=S)NC(=O)C1C(=O)Nc1ccccc1 [Merbarone]
L1 promoter activity [14]: 112 ± 12 | L1 promoter activity [15]: 113 ± 13 | L1 promoter activity [1]: 140 ± 17 | L1 promoter activity [2]: 147 ± 17 | L1 promoter activity [5]: 171 ± 27 | L1 promoter activity [6]: 219 ± 30 | L1 promoter activity [10]: 182 ± 16 | L1 promoter activity [11]: 198 ± 32

NS(=O)(=O)c1cc2c(cc1Cl)NC(C(Cl)Cl)NS2(=O)=O (stereo unspecified) [Trichlormethiazide]
L1 promoter activity [10]: 103 ± 10 | L1 promoter activity [11]: 66.9 ± 13 | L1 promoter activity [16]: 108 ± 17 | L1 promoter activity [17]: 59.6 ± 9.6 | L1 promoter activity [18]: 102 ± 6.6 | L1 promoter activity [19]: 99.7 ± 27

CNc1ccc2oc(C[C@H]3O[C@@]4(CC[C@H]3C)O[C@H]([C@H](C)C(=O)c3ccc[nH]3)[C@H](C)C[C@H]4C)nc2c1C(=O)O
L1 promoter activity (concentration (uM unless unit written): 0.75, treatment time: 6 h): 57.4 ± 16 | L1 promoter activity (concentration (uM unless unit written): 0.75, treatment time: 24 h): 57.4 ± 4.2 | L1 promoter activity (concentration (uM unless unit written): 1.5, treatment time: 6 h): 52.4 ± 8.8 | L1 promoter activity [7]: 54.4 ± 4.2

CCC1(c2ccc(N)cc2)CCC(=O)NC1=O (stereo unspecified) [Aminoglutethimide]
L1 promoter activity [16]: 140 ± 58 | L1 promoter activity [17]: 126 ± 11 | L1 promoter activity [18]: 136 ± 35 | L1 promoter activity [20]: 102 ± 16 | L1 promoter activity [19]: 96 ± 7.4

CC(=O)Nc1ccc(O)cc1 [Acetaminophen]
L1 promoter activity (concentration (uM unless unit written): 10000, treatment time: 6 h): 116 ± 12 | L1 promoter activity (concentration (uM unless unit written): 10000, treatment time: 24 h): 131 ± 18 | L1 promoter activity (concentration (uM unless unit written): 20000, treatment time: 6 h): 115 ± 9.1

COC1=C(OC)C(=O)c2ccccc2C1=O [2,3-Dimethoxy-1,4-naphthoquinone]
L1 promoter activity (concentration (uM unless unit written): 15, treatment time: 6 h): 119 ± 8.7 | L1 promoter activity (concentration (uM unless unit written): 30, treatment time: 6 h): 119 ± 8.1

O=C(O)Cc1ccccc1Nc1c(Cl)cccc1Cl [Diclofenac]
L1 promoter activity [21]: 109 ± 7.5 | L1 promoter activity [22]: 68.5 ± 3.6 | L1 promoter activity [16]: 107 ± 1.6 | L1 promoter activity [17]: 59.6 ± 5.5

CCOC(=O)C(C)(C)Oc1ccc(Cl)cc1 [Clofibrate]
L1 promoter activity [1]: 113 ± 11 | L1 promoter activity [2]: 112 ± 7.9 | L1 promoter activity [10]: 102 ± 11 | L1 promoter activity [11]: 100 ± 9.5 | L1 promoter activity [19]: 106 ± 17 | L1 promoter activity (concentration (uM unless unit written): 1000, treatment time: 24 h): 132 ± 23

COc1cc2c(c(OC)c1OC)-c1ccc(OC)c(=O)cc1[C@@H](NC(C)=O)CC2 [Colchicine]
L1 promoter activity (concentration (uM unless unit written): 0.01, treatment time: 6 h): 100 ± 17 | L1 promoter activity (concentration (uM unless unit written): 0.01, treatment time: 24 h): 100 ± 18 | L1 promoter activity (concentration (uM unless unit written): 0.05, treatment time: 6 h): 99.8 ± 4.3 | L1 promoter activity (concentration (uM unless unit written): 0.1, treatment time: 6 h): 108 ± 32

CN(Cc1cnc2nc(N)nc(N)c2n1)c1ccc(C(=O)N[C@@H](CCC(=O)O)C(=O)O)cc1 [Methotrexate]
L1 promoter activity [1]: 86.8 ± 9.6 | L1 promoter activity [2]: 112 ± 36 | L1 promoter activity [10]: 93.4 ± 13 | L1 promoter activity [11]: 108 ± 48 | L1 promoter activity [12]: 93.6 ± 12 | L1 promoter activity [13]: 142 ± 41

CC(C)(C(=O)c1cccnc1)c1cccnc1 [Metyrapone]
L1 promoter activity [21]: 121 ± 7.4 | L1 promoter activity [22]: 111 ± 11 | L1 promoter activity [16]: 142 ± 18 | L1 promoter activity [17]: 121 ± 11 | L1 promoter activity [18]: 127 ± 3.5 | L1 promoter activity [20]: 135 ± 14

O=C(O)c1nn(Cc2ccc(Cl)cc2Cl)c2ccccc12 [Lonidamine]
L1 promoter activity [5]: 105 ± 12 | L1 promoter activity [6]: 93 ± 8 | L1 promoter activity [10]: 87.9 ± 6.3 | L1 promoter activity [11]: 105 ± 9.1 | L1 promoter activity [12]: 99.9 ± 25 | L1 promoter activity [13]: 91.6 ± 9.5

C[C@]12CC[C@@H]3c4ccc(O)cc4CC[C@H]3[C@@H]1CC[C@@H]2O [17β-Estradiol]
L1 promoter activity [3]: 101 ± 6.5 | L1 promoter activity [4]: 104 ± 11 | L1 promoter activity [5]: 119 ± 8.4 | L1 promoter activity [6]: 103 ± 16 | L1 promoter activity [10]: 107 ± 7.5 | L1 promoter activity [11]: 102 ± 15

CC(C)OC(=O)C(C)(C)Oc1ccc(C(=O)c2ccc(Cl)cc2)cc1 [Fenofibrate]
L1 promoter activity [1]: 117 ± 9.8 | L1 promoter activity [2]: 108 ± 5.3 | L1 promoter activity [5]: 126 ± 11 | L1 promoter activity [6]: 127 ± 10 | L1 promoter activity [10]: 141 ± 12 | L1 promoter activity [11]: 163 ± 24

CO[C@@]12[C@H](COC(N)=O)C3=C(C(=O)C(C)=C(N)C3=O)N1C[C@@H]1N[C@@H]12 [Mitomycin C]
L1 promoter activity (concentration (uM unless unit written): 2.5, treatment time: 6 h): 119 ± 25 | L1 promoter activity (concentration (uM unless unit written): 2.5, treatment time: 24 h): 131 ± 10 | L1 promoter activity [1]: 96.4 ± 11 | L1 promoter activity [2]: 114 ± 25

C=C[C@@]1(C)CC(=O)[C@]2(O)[C@@]3(C)[C@@H](O)CCC(C)(C)[C@@H]3[C@H](O)[C@H](OC(C)=O)[C@@]2(C)O1 [Forskolin]
L1 promoter activity [3]: 88.6 ± 4.5 | L1 promoter activity [4]: 59.9 ± 9 | L1 promoter activity [5]: 85.9 ± 4 | L1 promoter activity [6]: 59 ± 6.1 | L1 promoter activity [10]: 89.2 ± 7.9 | L1 promoter activity [11]: 52 ± 4.8

CCCCc1nc(Cl)c(CO)n1Cc1ccc(-c2ccccc2-c2nnn[nH]2)cc1 [Losartan]
L1 promoter activity (concentration (uM unless unit written): 15.625, treatment time: 6 h): 93.6 ± 6.2 | L1 promoter activity (concentration (uM unless unit written): 15.625, treatment time: 24 h): 92.6 ± 10 | L1 promoter activity (concentration (uM unless unit written): 31.25, treatment time: 6 h): 106 ± 7.8 | L1 promoter activity (concentration (uM unless unit written): 31.25, treatment time: 24 h): 102 ± 10 | L1 promoter activity [23]: 109 ± 8.7 | L1 promoter activity [24]: 98.6 ± 11 | L1 promoter activity [21]: 101 ± 10 | L1 promoter activity [22]: 95.1 ± 7.4

CC(=O)N1CCN(c2ccc(OCC3COC(Cn4ccnc4)(c4ccc(Cl)cc4Cl)O3)cc2)CC1 (stereo unspecified) [Ketoconazol]
L1 promoter activity [1]: 90.8 ± 12 | L1 promoter activity [2]: 82.2 ± 16 | L1 promoter activity [8]: 83.5 ± 11 | L1 promoter activity [9]: 57.5 ± 15 | L1 promoter activity (concentration (uM unless unit written): 40, treatment time: 6 h): 71.4 ± 9.3 | L1 promoter activity (concentration (uM unless unit written): 40, treatment time: 24 h): 37.2 ± 4.2

OC(Cn1cncn1)(Cn1cncn1)c1ccc(F)cc1F [Fluconazole]
L1 promoter activity [25]: 108 ± 11 | L1 promoter activity [26]: 99.5 ± 7.4 | L1 promoter activity [27]: 99.2 ± 6.7 | L1 promoter activity (concentration (uM unless unit written): 2500, treatment time: 24 h): 92.7 ± 13

NC(=O)c1ccccc1O [Salicylamide]
L1 promoter activity [25]: 146 ± 22 | L1 promoter activity [26]: 175 ± 16 | L1 promoter activity [27]: 139 ± 9.1 | L1 promoter activity (concentration (uM unless unit written): 5000, treatment time: 6 h): 151 ± 25

Cc1cc(CC(=O)O)n(C)c1C(=O)c1ccc(Cl)cc1 [Zomepirac]
L1 promoter activity [18]: 102 ± 9.6 | L1 promoter activity [20]: 86.3 ± 6.3

CC1=C(CC(=O)O)c2cc(F)ccc2/C1=C\c1ccc([S+](C)[O-])cc1 (stereo unspecified) [Sulindac]
L1 promoter activity [16]: 218 ± 44

CCOC(=O)[C@@]1(CCCCCCOc2ccc(Cl)cc2)CO1 [Etomoxir]
L1 promoter activity [5]: 127 ± 11 | L1 promoter activity [6]: 111 ± 15 | L1 promoter activity [10]: 147 ± 12 | L1 promoter activity [11]: 143 ± 17 | L1 promoter activity [18]: 181 ± 23

CC[C@H](C)C(=O)O[C@H]1CCC=C2C=C[C@H](C)[C@H](CC[C@@H]3C[C@@H](O)CC(=O)O3)[C@H]21 [Mevastatin]
L1 promoter activity [14]: 114 ± 22 | L1 promoter activity [15]: 118 ± 31 | L1 promoter activity (concentration (uM unless unit written): 3, treatment time: 6 h): 101 ± 24 | L1 promoter activity (concentration (uM unless unit written): 3, treatment time: 24 h): 105 ± 12 | L1 promoter activity (concentration (uM unless unit written): 6, treatment time: 6 h): 123 ± 43 | L1 promoter activity (concentration (uM unless unit written): 6, treatment time: 24 h): 103 ± 18

CC(CN1c2ccccc2Sc2ccccc21)N(C)C (stereo unspecified) [Promethazine hydrochloride]
L1 promoter activity [5]: 73.9 ± 13

O=C(O)c1cc(-c2ccc(F)cc2F)ccc1O [Diflunisal]
L1 promoter activity [23]: 148 ± 6.5 | L1 promoter activity [24]: 117 ± 8.5 | L1 promoter activity [21]: 136 ± 12 | L1 promoter activity [22]: 156 ± 4.7 | L1 promoter activity [16]: 159 ± 21
